Laboratory results reported in patent publication US4337252A, “1-Phenyl-4-morpholino-1-buten-3-01 derivatives, compositions and use” (Univablot, priority 1980, dated 1982).

Tests used:
[1] = system: reserpine-induced blepharospasm; assay: Reserpine antagonism (blepharospasm); type: in vivo, Male, Swiss strain mice; details: mice, IP, 1/10 of LD50, 30 min before reserpine 5 mg/kg IP; class symbols
Method: 3. Reserpine antagonism (blepharospasm) (Chen G., and Bohner B., (1961) J. Pharmacol. Exptl. Therap. 131, 179).
Reserpine administered to mice in a dosage of 5 mg/kg intraperitoneally subsequently causes the eyelids to drop more or less completely in the majority of the animals. The administration of certain products inhibits the blepharospasm produced by reserpine.
Male, Swiss strain mice are distributed into groups of 10 and each experiment comprises at least 3 groups:
a control group that receives only the solvent and reserpine
a group treated with a reference product: we chose imipramine
a treated group that receives the product being tested in a dosage of 1/10 of the LD50.
The products being tested are administered intraperitoneally 30 minutes before the intraperitoneal injection of reserpine in a dosage of 5 mg/kg, so as to study their activity as a function of time.
The degree of ptosis for each eye and for each animal is observed every 30 minutes for 4 to 5 hours, according to RUBIN's scoring system (RUBIN et al., J. Pharm. Exp. Therap. 1957, 120, 125-136). The activity of the product is determined by comparing the result obtained with the treated control group. The inhibition of blepharospasm is recorded from 0 to +++.

[2] = Toxicity: LD50 in mice by the intraperitoneal route (log-probits method of Miller and Tainter); details: mouse, in vivo
Method: The LD50 of the products was measured in mice by the intraperitoneal route according to the "log-probits" method of Miller and Tainter (Proc. Soc. Exptl. Biol. Med. 1944; 57, 261-264).

SMILES	Blepharospasm (inhibition of reserpine-induced blepharospasm) [1]	LD50 ([2]; mice, IP)	LD50 ([2]; ip)
COc1ccc(C=CC(O)CN2CCOCC2)cc1 (stereo not drawn) [Example 1, 1-(p-methoxyphenyl)-4-morpholino-1-buten-3-ol]	+++ (inhibition >45%)	500 mg/kg	
OC(C=Cc1ccc(Cl)cc1)CN1CCOCC1 (stereo not drawn) [Example 2]	+++ (inhibition >45%)		400 mg/kg
OC(C=Cc1ccc(F)cc1)CN1CCOCC1 (stereo not drawn) [Example 3]	++ (inhibition 26-45%)		800 mg/kg
Oc1ccc(C=CC(O)CN2CCOCC2)cc1 (stereo not drawn) [Example 4]	++ (inhibition 26-45%)		650 mg/kg
C#CCOc1ccc(C=CC(O)CN2CCOCC2)cc1 (stereo not drawn) [Example 5]	++ (inhibition 26-45%)		400 mg/kg
C=CCOc1ccc(C=CC(O)CN2CCOCC2)cc1 (stereo not drawn) [Example 6]	++ (inhibition 26-45%)		300 mg/kg
